Results reported in patent publication US6913877B1 (priority 2000, dated 2005).
“Also recorded” adds a separate entry of the source. Where a name gives a salt, the structure may show the parent alone. No end group written: not given here.

Legend:
[1] = test system: chromatophore/bacterial cell; assay type: cell-based
chromatophores [2] = test system: chromatophores
chromatophores [3] = assay: cells; details: read-out: Threshold concentration PPM
melanophores = assay type: cell-based
erythrophores = assay type: cell-based
[4] = test system: Betta splendens erythrophores; assay type: cell-based
[5] = test system: chromatophore/neuronal cell; assay type: cell-based
[6] = test system: chromatophore/protozoal cell; assay type: cell-based
iridophores = assay type: cell-based
chromatophores [7] = assay type: cell-based
[8] = test system: Betta splendens chromatophores; assay type: cell-based
Betta chromatophores = assay type: cell-based
[9] = test system: Hemichromis bimaculatus chromatophores; assay type: cell-based
[10] = test system: chromatophore/fungal cell; assay type: cell-based

In the case of `CN(C)[C@@H]1C(O)=C(C(N)=O)C(=O)[C@@]2(O)C(O)=C3C(=O)c4c(O)cccc4[C@@](C)(O)[C@H]3C[C@@H]12` [Tetrasycline], the “Chromatophore response 2-Cell Cytosensor (second cell type included)” value (shortened to “Chromatophore response 2-Cell Cytosensor”) [1] is reported as “Normal”, the “Response time Hr.” value (chromatophores [2]) is reported as “XX (key: X=1-6 hr; XX=6-24 hr)” and the “Threshold concentration PPM” value (chromatophores [2]) is reported as “X (key: X=1 to 100 PPM; XX=100 to 1000 PPM)”.

For `CCCCCCC(C)(C)c1ccc([C@@H]2C[C@H](O)CC[C@H]2CCCO)c(O)c1` [Cannabinoid CP-55940, CP-55940], the minimal effective concentration (chromatophores [3]) was 100 to 1000 µg/mL and the “Response time Hr.” value (chromatophores [2]) was “X (key: X=1-6 hr; XX=6-24 hr)”.

`C[C@]12CCC(=O)C=C1CC[C@@H]1[C@@H]2[C@@H](O)C[C@@]2(C)[C@H]1CC[C@]2(O)C(=O)CO` [Hydrocortisone] was tested, and the minimal effective concentration (chromatophores [3]) was 1 to 100 µg/mL and the “Chromatophore response Melanophores” value (melanophores) was “Hyp.D”.

In the case of `Cc1cc(C(C)(C)C)c(O)c(C)c1CC1=NCCN1` [Oxymetazoline], the “Chromatophore response Erythrophores” value (erythrophores) is reported as “Aggr”.

`c1ccc2c(c1)CCCC2C1=NCCN1` (stereo not drawn) [Tetrahydrozoline] was tested, and the “Chromatophore response Erythrophores” value (erythrophores) was “Aggr”.

With `c1ccc2c(CC3=NCCN3)cccc2c1` [Naphazoline] the “Chromatophore response Erythrophores” value (erythrophores) was “Aggr”.

`CC(=O)OCOC(=O)CN(CC(=O)OCOC(C)=O)c1ccccc1OCCOc1ccccc1N(CC(=O)OCOC(C)=O)CC(=O)OCOC(C)=O` [BAPTA/AM] was tested, and the erythrophore pigment response [4] was “pigment dispersion”.

For `COc1ccc(CCN(C)CCCC(C#N)(c2ccc(OC)c(OC)c2)C(C)C)cc1OC` (stereo not drawn) [Verapamil], the erythrophore pigment response [4] was “rapid dispersion; also recorded: disperse almost as completely as possible; also recorded: pigment dispersion; also recorded: larger dispersion”.

In the case of `Clc1cccc(Cl)c1N=C1NCCN1` [Clonidine], the “Chromatophore response Erythrophores” value (erythrophores) is reported as “Aggr”.

For `C=C(C=O)C[C@@H]1C[C@H](O)[C@]2(C)O[C@@H]3C[C@@H]4O[C@@H]5C[C@]6(C)O[C@]7(C)CC[C@@H]8O[C@@H]9C[C@]%10(C)O[C@@H]%11C(C)=CC(=O)O[C@H]%11C[C@H]%10O[C@H]9C[C@@H](C)[C@H]8O[C@H]7C[C@H]6O[C@H]5C/C=C\[C@H]4O[C@H]3C[C@H]2O1` [Brevetoxin], the “Chromatophore response (cell spans the chromatophore columns, cell type not assigned)” value (chromatophores [2]) was “Aggr”.

With `CCn1cc(C(=O)O)c(=O)c2ccc(C)nc21` [Nalidixic acid] the “Chromatophore response 2-Cell Cytosensor” value [1] was “Normal”.

With `C[N+](C)(C)CCOC(N)=O` [Carbachol] the “Chromatophore response 2-Cell Cytosensor” value [5] was “Erythr. Aggr”.

For `CCOP(=O)(OCC)Oc1ccc([N+](=O)[O-])cc1` [Paraoxon], the “Threshold concentration PPM” value (chromatophores [2]) was “XX (key: X=1 to 100 PPM; XX=100 to 1000 PPM)”.

In the case of `O=C(O)c1ccccc1O` [Salicylate], the “Chromatophore response (cell spans the chromatophore columns, cell type not assigned)” value (chromatophores [2]) is reported as “Imp. (FS)”.

Penicillin was tested, and the “Chromatophore response 2-Cell Cytosensor” value [1] was “Normal”.

`[Pb]` [Pb] was tested, and the “Chromatophore response (cell spans the chromatophore columns, cell type not assigned)” value (chromatophores [2]) was “Imp. (FS)”.

With `C=C[C@H]1C[N@@]2CC[C@H]1C[C@H]2[C@H](O)c1ccnc2ccc(OC)cc12` [Quinine sulfate] the “Chromatophore response 2-Cell Cytosensor” value [6] was “Normal”.

With `[Ag]` [Ag] the “Chromatophore response (cell spans the chromatophore columns, cell type not assigned)” value (chromatophores [2]) was “Imp. (FS)”.

Latrotoxin was tested, and the “Chromatophore response Erythrophores” value (erythrophores) was “Aggr” and the “Chromatophore response 2-Cell Cytosensor” value [5] was “Aggr”.

For `Nc1ncnc2c1ncn2[C@@H]1O[C@H](COP(=O)(O)OP(=O)(O)OP(=O)(O)O)[C@@H](O)[C@H]1O` [ATP], the “Chromatophore response 2-Cell Cytosensor” value [5] was “Erythr. Aggr”.

With `[Cu]` [Cu] the “Chromatophore response (cell spans the chromatophore columns, cell type not assigned)” value (chromatophores [2]) was “Imp. (FS)”.

In the case of MSH, the “Chromatophore response Iridophores” value (iridophores) is reported as “Hue changes (isolated”, the “Chromatophore response Melanophores” value (melanophores) is reported as “Disp” and the “Threshold concentration PPB” value (chromatophores [2]) is reported as “X (key: X=1 to 100 PPB; XX=100 to 1000 PPB)”. The “concentration at which chromatophores respond” value (chromatophores [7]) was 0.001 µM.

With melanophore concentrating hormone [MCH] the “Chromatophore response (cell spans the chromatophore columns, cell type not assigned)” value (chromatophores [2]) was “Aggr” and the “Threshold concentration PPB” value (chromatophores [2]) was “X (key: X=1 to 100 PPB; XX=100 to 1000 PPB)”.

With `C=CC[C@@H](CC/C(C)=C/C=C/CC/C=C\[C@@H]1CSC([C@@H]2C[C@@H]2C)=N1)OC` [Curacin A] the “Chromatophore response (cell spans the chromatophore columns, cell type not assigned)” value (chromatophores [2]) was “Aggr. and Imp. (FS)”.

In the case of `OO` [Hydrogen peroxide], the “Chromatophore response (cell spans the chromatophore columns, cell type not assigned)” value (chromatophores [2]) is reported as “Imp. (FS)”.

With `CC(COc1ccccc1)N(CCCl)Cc1ccccc1` (stereo not drawn) [Phenoxybenzamine, Phenoxy-benzamine] the “Chromatophore response (cell spans the chromatophore columns, cell type not assigned)” value (chromatophores [2]) was “Blocks norepinephrine” and the “Threshold concentration PPB” value (chromatophores [2]) was “X (key: X=1 to 100 PPB; XX=100 to 1000 PPB)”.

For `O=S(=O)(F)Cc1ccccc1` [PMSF], the “Chromatophore response Melanophores” value (melanophores) was “Imp”.

In the case of `NCCc1c[nH]c2ccc(O)cc12` [Serotonin], the “Chromatophore response Melanophores” value (melanophores) is reported as “Partial”.

With Cholera toxin the “lowest concentration at which inhibition of norepinephrine induced pigment aggregation is detected” value [8] was 1 ng/m, the chromatophore pigment response (Betta chromatophores) was “Pigment aggregation is evident” and the “effect of pre-incubation on norepinephrine-induced pigment aggregation” value (Betta chromatophores) was “impaired pigment aggregation in response to NE”. For the same compound, the “change of appearance / color of chromatophores” value [9] was “change the appearance”, the “erythrophore response upon challenge by norepinephrine” value [9] was “impaired” and the “Threshold concentration PPB” value (chromatophores [2]) was “X (key: X=1 to 100 PPB; XX=100 to 1000 PPB)”. The “color class of chromatophores with selective sensitivity” value (chromatophores [7]) was “erythrophores”.

In the case of `Cc1ncc([N+](=O)[O-])n1CCO` [Metronidazole], the “Chromatophore response 2-Cell Cytosensor” value [6] is reported as “Normal”.

With `CCN(CC)CCCC(C)Nc1ccnc2cc(Cl)ccc12` (stereo not drawn) [Chloroquine] the “Chromatophore response 2-Cell Cytosensor” value [6] was “Normal”.

In the case of `N` [Ammonium], the “Chromatophore response (cell spans the chromatophore columns, cell type not assigned)” value (chromatophores [2]) is reported as “Imp. (FS)”.

In the case of `C[C@H](CCC(=O)O)C[C@H](C)C[C@H](C)C(=O)/C=C(\O)[C@H](C)C[C@H](C)C/C=C/[C@@H](C)[C@@H](O)[C@@H](C)[C@@H](O)C[C@@H]1CC[C@@](C)([C@H]2CC[C@@](C)([C@@H](C)O)O2)O1` [Ionomycin], the erythrophore pigment response [4] is reported as “slight, but sustained aggregation”.

`C=C[C@@]1(C)CC(=O)[C@]2(O)[C@@]3(C)[C@@H](O)CCC(C)(C)[C@@H]3[C@H](O)[C@H](OC(C)=O)[C@@]2(C)O1` [Forskolin] was tested, and the “concentration at which chromatophores respond” value (chromatophores [7]) was 10000 µM.

For “Substance P (RPKPQQFFGLM; ends and bridges not checked; UniProt P20366 58-68, looked up)”, the “Chromatophore response Iridophores” value (iridophores) was “Hue changes (FS)”.

For `Cn1c(=O)c2c(ncn2C)n(C)c1=O` [Caffeine], the “concentration at which chromatophores respond” value (chromatophores [7]) was 100 µM.

`COP(=O)(OC)OC=C(Cl)Cl` [Dichlorvos] was tested, and the “Threshold concentration PPT” value (chromatophores [2]) was “X (key: X=1 PPT or higher)”.

`Cc1ccc(N(CC2=NCCN2)c2cccc(O)c2)cc1` [Phentolamine] was tested, and the “Chromatophore response (cell spans the chromatophore columns, cell type not assigned)” value (chromatophores [2]) was “Blocks norepinephrine” and the “Threshold concentration PPB” value (chromatophores [2]) was “XX (key: X=1 to 100 PPB; XX=100 to 1000 PPB)”.

`COC(=O)C1=C(C)NC(C)=C([N+](=O)[O-])C1c1ccccc1C(F)(F)F` (stereo not drawn) [Bay K8644] was tested, and the “erythrophore pigment response to direct application” value [4] was “neither the aggregation nor dispersion of erythrophore pigment”.

`COP(=O)(OC)C(O)C(Cl)(Cl)Cl` (stereo not drawn) [Trichlorfon] was tested, and the “Threshold concentration PPT” value (chromatophores [2]) was “X (key: X=1 PPT or higher)”.

In the case of Mevinphos, the “Chromatophore response Iridophores” value (iridophores) is reported as “Hue change, then Imp”, the “Chromatophore response Melanophores” value (melanophores) is reported as “Imp” and the “Chromatophore response Erythrophores” value (erythrophores) is reported as “Imp. (FS)”. The “Threshold concentration PPT” value (chromatophores [2]) was “X (key: X=1 PPT or higher)”.

For `c1cc2c3c(cccc3c1)CC2` [Acenapthene], the “Chromatophore response (cell spans the chromatophore columns, cell type not assigned)” value (chromatophores [2]) was “Imp”.

`COC(=O)[C@@H]1[C@H]2C[C@H]3c4[nH]c5ccccc5c4CCN3C[C@@H]2CC[C@@H]1O` [Yohimbine] was tested, and the “Chromatophore response (cell spans the chromatophore columns, cell type not assigned)” value (chromatophores [2]) was “Blocks norepinephrine” and the “Threshold concentration PPB” value (chromatophores [2]) was “X (key: X=1 to 100 PPB; XX=100 to 1000 PPB)”.

In the case of `NC[C@H](O)c1ccc(O)c(O)c1` [Norepinephrine], the “Chromatophore response Erythrophores” value (erythrophores) is reported as “Aggr”, the chromatophore pigment response (Betta chromatophores) is reported as “aggregation of chromatophore pigment is apparent” and the “change of appearance / color of chromatophores” value [9] is reported as “change the appearance”. For the same compound, the “Threshold concentration PPB” value (chromatophores [2]) was “X (key: X=1 to 100 PPB; XX=100 to 1000 PPB)”.

With `[H]/N=C(/N)N[C@H]1[C@H](O)[C@@H](O)[C@H](O[C@@H]2O[C@@H](C)[C@](O)(C=O)[C@H]2O[C@@H]2O[C@@H](CO)[C@H](O)[C@@H](O)[C@@H]2NC)[C@@H](N/C(N)=N\[H])[C@@H]1O` [Streptomycin] the “Chromatophore response 2-Cell Cytosensor” value [1] was “Normal”.

`[Ni]` [Ni] was tested, and the “Chromatophore response (cell spans the chromatophore columns, cell type not assigned)” value (chromatophores [2]) was “Imp. (FS)”.

With `c1ccc2cc3c(ccc4ccccc43)cc2c1` [1,2-Benzanthracene] the “Chromatophore response (cell spans the chromatophore columns, cell type not assigned)” value (chromatophores [2]) was “Imp”.

In the case of `C[C@@H]1[C@H](O)[C@@H](C)/C=C/C=C/C=C/C=C/C=C/C=C/C=C/[C@H](O[C@@H]2O[C@H](C)[C@@H](O)[C@H](N)[C@@H]2O)C[C@@H]2O[C@](O)(C[C@@H](O)C[C@@H](O)[C@H](O)CC[C@@H](O)C[C@@H](O)CC(=O)O[C@H]1C)C[C@H](O)[C@H]2C(=O)O` [Amphotericin B], the “Chromatophore response 2-Cell Cytosensor” value [10] is reported as “Normal”.
